Laboratory results from ChEMBL document CHEMBL4270491, “Novel 2,4- thiazolidinediones: Synthesis, in vitro cytotoxic activity, and mechanistic investigation” (Eur J Med Chem, 2017).
One block for each compound: values may come before it. The source made the active and inactive calls. The rule behind the calls is not given here.

Key:
PC-3 [1] = experiment: Cytotoxic activity in human PC3 cells assessed as reduction in cell viability incubated for 3 days by MTT assay; type: functional, cell-based; conditions: PC-3, 72 h
MDA-MB-231 [2] = experiment: Cytotoxic activity in human MDA-MB-231 cells assessed as reduction in cell viability incubated for 3 days by MTT assay; type: functional, cell-based; conditions: MDA-MB-231, 72 h
HT-1080 [3] = experiment: Cytotoxic activity in human HT1080 cells assessed as reduction in cell viability incubated for 3 days by MTT assay; type: functional, cell-based; conditions: HT-1080, 72 h
HT-1080 [4] = experiment: Induction of apoptosis in human HT1080 cells assessed as induction of DNA fragmentation at 50 uM incubated for 48 hrs by flow cytometry; type: functional, cell-based
HT-1080 [5] = experiment: Induction of apoptosis in human HT1080 cells assessed as induction of caspase-3 cleavage at 50 uM incubated for 24 hrs by Western blot analysis; type: functional, cell-based
HT-1080 [6] = experiment: Induction of cell cycle arrest in human HT1080 cells assessed as accumulation at G0/G1 phase at 50 uM incubated for 48 hrs by propidium iodide staining based flow cytometry; type: functional
HT-1080 [7] = experiment: Induction of cell cycle arrest in human HT1080 cells assessed as accumulation at G2/M phase at 50 uM incubated for 48 hrs by propidium iodide staining based flow cytometry; type: functional
PC-3 [8] = experiment: Increase in p21(WAF1) protein expression in human PC3 cells at 50 uM incubated for 24 hrs by Western blot analysis; type: functional, cell-based
MDA-MB-231 [9] = experiment: Increase in p21(WAF1) protein expression in human MDA-MB-231 cells at 50 uM incubated for 24 hrs by Western blot analysis; type: functional, cell-based
HT-1080 [10] = experiment: Increase in p21(WAF1) protein expression in human HT1080 cells at 50 uM incubated for 24 hrs by Western blot analysis; type: functional, cell-based
HT-1080 [11] = experiment: Induction of cell cycle arrest in human HT1080 cells assessed as accumulation at G0/G1 phase at 20 uM incubated for 48 hrs by propidium iodide staining based flow cytometry; type: functional
HT-1080 [12] = experiment: Induction of cell cycle arrest in human HT1080 cells assessed as accumulation at G2/M phase at 20 uM incubated for 48 hrs by propidium iodide staining based flow cytometry; type: functional
[13] = molecular target: T1, Mitogen-activated protein kinase; ERK1/ERK2 (Homo sapiens) (UniProt P27361+P28482); experiment: Induction of ERK1/2 Thr202/Tyr204 phosphorylation in human PC3 cells at 50 uM incubated for 24 hrs by Western blot analysis; type: cell-based
[14] = molecular target: T1, Mitogen-activated protein kinase; ERK1/ERK2 (Homo sapiens); experiment: Inhibition of ERK1/2 Thr202/Tyr204 phosphorylation in human MDA-MB-231 cells at 50 uM incubated for 24 hrs by Western blot analysis; type: cell-based

T1 sequence (P27361 whole entry, looked up): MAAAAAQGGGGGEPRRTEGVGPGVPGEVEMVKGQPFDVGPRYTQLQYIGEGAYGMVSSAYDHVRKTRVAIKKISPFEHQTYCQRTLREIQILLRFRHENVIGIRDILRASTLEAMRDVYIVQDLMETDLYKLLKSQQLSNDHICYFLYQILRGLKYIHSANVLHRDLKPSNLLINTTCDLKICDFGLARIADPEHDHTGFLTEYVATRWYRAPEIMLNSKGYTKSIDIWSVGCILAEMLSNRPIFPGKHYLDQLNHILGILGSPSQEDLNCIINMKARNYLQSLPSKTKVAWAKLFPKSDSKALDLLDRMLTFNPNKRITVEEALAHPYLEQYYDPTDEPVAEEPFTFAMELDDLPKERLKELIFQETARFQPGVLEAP
T1 sequence (P28482 whole entry, looked up): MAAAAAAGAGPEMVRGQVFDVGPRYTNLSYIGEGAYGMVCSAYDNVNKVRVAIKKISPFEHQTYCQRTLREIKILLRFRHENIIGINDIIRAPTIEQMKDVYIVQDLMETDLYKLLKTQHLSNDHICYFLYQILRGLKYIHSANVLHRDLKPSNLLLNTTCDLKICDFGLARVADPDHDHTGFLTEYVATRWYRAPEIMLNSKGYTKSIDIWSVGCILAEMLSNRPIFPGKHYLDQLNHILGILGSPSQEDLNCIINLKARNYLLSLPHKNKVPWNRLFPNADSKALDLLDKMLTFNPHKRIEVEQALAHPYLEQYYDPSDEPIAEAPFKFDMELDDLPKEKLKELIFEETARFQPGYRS

Structure (SMILES): O=C1S/C(=C/c2ccccc2)C(=O)N1Cc1nc2ccccc2c(=O)n1-c1cccc(Br)c1
IC50 (PC-3 [1]): 37 µM
IC50 (MDA-MB-231 [2]): 23.4 µM
IC50 (HT-1080 [3]): 24.6 µM

Structure (SMILES): COc1cc(/C=C2/SC(=O)NC2=O)ccc1OCc1nc2ccccc2c(=O)n1-c1ccc(C(F)(F)F)cc1
Activity (HT-1080 [4]): Active
IC50 (PC-3 [1]): 50.1 µM
IC50 (MDA-MB-231 [2]): 41 µM
IC50 (HT-1080 [3]): 38.8 µM
Activity (HT-1080 [5]): Active
Activity (HT-1080 [6]): Active
Activity (HT-1080 [7]): Active

Structure (SMILES): Cc1ccc(-n2c(COc3ccc(/C=C4/SC(=O)NC4=O)cc3)nc3ccccc3c2=O)cc1
Activity (HT-1080 [4]): Active
IC50 (PC-3 [1]): 82.5 µM
IC50 (MDA-MB-231 [2]): 72.2 µM
IC50 (HT-1080 [3]): 45.3 µM
Activity (HT-1080 [6]): Active
Activity (HT-1080 [7]): Active

Structure (SMILES): O=C1NC(=O)/C(=C\c2ccc(OCc3nc4ccccc4c(=O)n3-c3ccc(Br)cc3)cc2)S1
Activity (HT-1080 [4]): Active
IC50 (PC-3 [1]): 60.7 µM
IC50 (MDA-MB-231 [2]): 45.4 µM
IC50 (HT-1080 [3]): 46.1 µM
Activity (HT-1080 [6]): Active
Activity (HT-1080 [7]): Active

Structure (SMILES): COc1ccc(-n2c(CN3C(=O)S/C(=C/c4ccc(N(C)C)cc4)C3=O)nc3ccccc3c2=O)cc1OC
Activity (HT-1080 [4]): Active
IC50 (PC-3 [1]): > 100 µM
IC50 (MDA-MB-231 [2]): > 100 µM
IC50 (HT-1080 [3]): 86.5 µM
Activity (HT-1080 [5]): Active
Activity (HT-1080 [6]): Active
Activity (HT-1080 [7]): Active

Structure (SMILES): COc1ccc(/C=C2/SC(=O)N(Cc3nc4ccccc4c(=O)n3-c3ccccc3)C2=O)cc1
Activity (HT-1080 [4]): Active
IC50 (PC-3 [1]): 79.6 µM
IC50 (MDA-MB-231 [2]): 32.5 µM
IC50 (HT-1080 [3]): 47.8 µM
Activity (HT-1080 [6]): Active
Activity (HT-1080 [7]): Active

Structure (SMILES): Cc1ccc(/C=C2/SC(=O)N(Cc3nc4ccccc4c(=O)n3-c3ccccc3)C2=O)cc1
IC50 (PC-3 [1]): 82.4 µM
IC50 (MDA-MB-231 [2]): 39.7 µM
IC50 (HT-1080 [3]): 68.4 µM

Structure (SMILES): CCc1ccc(CCOc2ccc(CC3SC(=O)NC3=O)cc2)nc1 (stereo not given) [PIOGLITAZONE]
Activity (HT-1080 [4]): inactive
IC50 (PC-3 [1]): > 100 µM
IC50 (MDA-MB-231 [2]): > 100 µM
IC50 (HT-1080 [3]): > 100 µM
Activity (PC-3 [8]): Active
Activity (MDA-MB-231 [9]): Active
Activity (HT-1080 [10]): inactive

Activity [13]: Active
inhibition [14]: Active
Structure (SMILES): CN(C)c1ccc(/C=C2/SC(=O)N(Cc3nc4ccccc4c(=O)n3-c3ccccc3)C2=O)cc1
Activity (HT-1080 [4]): Active
IC50 (PC-3 [1]): 19.4 µM
IC50 (MDA-MB-231 [2]): 5.9 µM
IC50 (HT-1080 [3]): 9 µM
Activity (HT-1080 [5]): Active
Activity (HT-1080 [11]): Active
Activity (HT-1080 [12]): Active

Structure (SMILES): COc1cc(/C=C2/SC(=O)NC2=O)ccc1OCc1nc2ccccc2c(=O)n1-c1cccc(Cl)c1
IC50 (PC-3 [1]): 62.1 µM
IC50 (MDA-MB-231 [2]): 72.5 µM
IC50 (HT-1080 [3]): 67.6 µM

Structure (SMILES): COc1cccc(-n2c(COc3ccc(/C=C4/SC(=O)NC4=O)cc3OC)nc3ccccc3c2=O)c1
Activity (HT-1080 [4]): Active
IC50 (PC-3 [1]): 64.1 µM
IC50 (MDA-MB-231 [2]): 87.2 µM
IC50 (HT-1080 [3]): 47.9 µM
Activity (HT-1080 [6]): Active
Activity (HT-1080 [7]): Active

Structure (SMILES): O=C1NC(=O)/C(=C\c2ccc(OCc3nc4ccccc4c(=O)n3-c3ccc(F)cc3)cc2)S1
Activity (HT-1080 [4]): Active
IC50 (PC-3 [1]): 52.1 µM
IC50 (MDA-MB-231 [2]): 46.2 µM
IC50 (HT-1080 [3]): 45.3 µM
Activity (HT-1080 [6]): Active
Activity (HT-1080 [7]): Active

Structure (SMILES): Cc1cccc(-n2c(COc3ccc(/C=C4/SC(=O)NC4=O)cc3)nc3ccccc3c2=O)c1
IC50 (PC-3 [1]): > 100 µM
IC50 (MDA-MB-231 [2]): > 100 µM
IC50 (HT-1080 [3]): 54 µM

Structure (SMILES): COc1cc(-n2c(CN3C(=O)S/C(=C/c4ccc(N(C)C)cc4)C3=O)nc3ccccc3c2=O)cc(OC)c1OC
Activity (HT-1080 [4]): inactive
IC50 (PC-3 [1]): > 100 µM
IC50 (MDA-MB-231 [2]): > 100 µM
IC50 (HT-1080 [3]): 98.1 µM
Activity (HT-1080 [5]): Active
Activity (HT-1080 [6]): Active
Activity (HT-1080 [7]): Active

Activity [13]: Active
inhibition [14]: Active
Structure (SMILES): O=C1NC(=O)/C(=C\c2ccc(OCc3nc4ccccc4c(=O)n3-c3ccc(C(F)(F)F)cc3)cc2)S1
Activity (HT-1080 [4]): Active
IC50 (PC-3 [1]): 19.1 µM
IC50 (MDA-MB-231 [2]): 13 µM
IC50 (HT-1080 [3]): 9 µM
Activity (HT-1080 [5]): Active
Activity (HT-1080 [11]): Active
Activity (HT-1080 [12]): Active
Activity (PC-3 [8]): Active
Activity (MDA-MB-231 [9]): Active
Activity (HT-1080 [10]): inactive

Activity [13]: Active
inhibition [14]: Active
Structure (SMILES): O=C1NC(=O)/C(=C\c2ccc(OCc3nc4ccccc4c(=O)n3-c3ccc(Cl)cc3)cc2)S1
Activity (HT-1080 [4]): Active
IC50 (PC-3 [1]): 8.7 µM
IC50 (MDA-MB-231 [2]): 4.5 µM
IC50 (HT-1080 [3]): 3.9 µM
Activity (HT-1080 [5]): Active
Activity (HT-1080 [11]): Active
Activity (HT-1080 [12]): Active
Activity (PC-3 [8]): Active
Activity (MDA-MB-231 [9]): Active
Activity (HT-1080 [10]): inactive

Structure (SMILES): COc1cccc2c1C(=O)c1c(O)c3c(c(O)c1C2=O)C[C@@](O)(C(=O)CO)C[C@@H]3O[C@H]1C[C@H](N)[C@H](O)[C@H](C)O1 [DOXORUBICIN]
IC50 (PC-3 [1]): 0.3 µM
IC50 (MDA-MB-231 [2]): 0.36 µM
IC50 (HT-1080 [3]): 0.017 µM

Structure (SMILES): COc1cc(/C=C2/SC(=O)NC2=O)ccc1OCc1nc2ccccc2c(=O)n1-c1cccc(Br)c1
Activity (HT-1080 [4]): Active
IC50 (PC-3 [1]): 66.8 µM
IC50 (MDA-MB-231 [2]): 62.1 µM
IC50 (HT-1080 [3]): 41.9 µM
Activity (HT-1080 [6]): Active
Activity (HT-1080 [7]): Active

Structure (SMILES): O=C1NC(=O)/C(=C\c2ccc(OCc3nc4ccccc4c(=O)n3-c3ccccc3)cc2)S1
Activity (HT-1080 [4]): Active
IC50 (PC-3 [1]): 71 µM
IC50 (MDA-MB-231 [2]): 50.7 µM
IC50 (HT-1080 [3]): 34.9 µM
Activity (HT-1080 [6]): Active
Activity (HT-1080 [7]): Active

Structure (SMILES): COc1cccc(-n2c(COc3ccc(/C=C4/SC(=O)NC4=O)cc3)nc3ccccc3c2=O)c1
Activity (HT-1080 [4]): Active
IC50 (PC-3 [1]): 66.9 µM
IC50 (MDA-MB-231 [2]): 59.6 µM
IC50 (HT-1080 [3]): 45.6 µM
Activity (HT-1080 [6]): Active
Activity (HT-1080 [7]): Active

Structure (SMILES): O=C1S/C(=C/c2ccc(Cl)cc2Cl)C(=O)N1Cc1nc2ccccc2c(=O)n1-c1ccccc1
Activity (HT-1080 [4]): inactive
IC50 (PC-3 [1]): 58.1 µM
IC50 (MDA-MB-231 [2]): 6.4 µM
IC50 (HT-1080 [3]): 12.2 µM
Activity (HT-1080 [11]): Active
Activity (HT-1080 [12]): Active

Structure (SMILES): COc1cc(/C=C2/SC(=O)NC2=O)ccc1OCc1nc2ccccc2c(=O)n1-c1ccccc1
Activity (HT-1080 [4]): Active
IC50 (PC-3 [1]): 64.2 µM
IC50 (MDA-MB-231 [2]): 84.2 µM
IC50 (HT-1080 [3]): 64.7 µM
Activity (HT-1080 [6]): Active
Activity (HT-1080 [7]): Active

Structure (SMILES): O=C1NC(=O)/C(=C\c2ccc(OCc3nc4ccccc4c(=O)n3-c3cccc(Cl)c3)cc2)S1
Activity (HT-1080 [4]): Active
IC50 (PC-3 [1]): 70.2 µM
IC50 (MDA-MB-231 [2]): 58.5 µM
IC50 (HT-1080 [3]): 44.8 µM
Activity (HT-1080 [6]): Active
Activity (HT-1080 [7]): Active

Structure (SMILES): COc1cc(/C=C2/SC(=O)NC2=O)ccc1OCc1nc2ccccc2c(=O)n1-c1ccc(Br)cc1
Activity (HT-1080 [4]): Active
IC50 (PC-3 [1]): 51.1 µM
IC50 (MDA-MB-231 [2]): 51.3 µM
IC50 (HT-1080 [3]): 18.9 µM
Activity (HT-1080 [5]): Active
Activity (HT-1080 [6]): Active
Activity (HT-1080 [7]): Active

Structure (SMILES): O=C1NC(=O)/C(=C\c2ccc(OCc3nc4ccccc4c(=O)n3-c3cccc(Br)c3)cc2)S1
Activity (HT-1080 [4]): Active
IC50 (PC-3 [1]): 52.9 µM
IC50 (MDA-MB-231 [2]): 49.8 µM
IC50 (HT-1080 [3]): 28.4 µM
Activity (HT-1080 [6]): Active
Activity (HT-1080 [7]): Active
